In ChEMBL document CHEMBL2203152, “Systematic in vivo screening of a series of 1-propyl-4-arylpiperidines against dopaminergic and serotonergic properties in rat brain: a scaffold-jumping approach” (J Med Chem, 2012):
Calls of active or inactive are those of the source. The rule behind the calls is not given here.

Columns and labels:
Rattus norvegicus [1] = assay: Decrease in 5-HIAA level in Sprague-Dawley rat striatum at 100 umol/kg, sc by HPLC analysis relative to saline-treated control; format: functional; set-up: scale not given: the % may be the effect or the level left
Rattus norvegicus [2] = assay: Increase in DOPAC level in sc dosed Sprague-Dawley rat striatum by HPLC analysis; format: functional
Rattus norvegicus [3] = assay: Reduction in spontaneous locomotor activity in Sprague-Dawley rat at 100 umol/kg, sc measured after 15 to 60 mins relative to saline-treated control; format: functional; set-up: scale not given: the % may be the effect or the level left
Rattus norvegicus [4] = assay: Increase in DOPAC level in Sprague-Dawley rat striatum at 100 umol/kg, sc by HPLC analysis relative to saline-treated control; format: functional
Rattus norvegicus [5] = assay: Increase in DOPAC level in Sprague-Dawley rat striatum at 33 umol/kg, sc by HPLC analysis relative to saline-treated control; format: functional
Rattus norvegicus [6] = assay: Reduction in spontaneous locomotor activity in Sprague-Dawley rat at 33 umol/kg, sc measured after 15 to 60 mins relative to saline-treated control; format: functional; set-up: scale not given: the % may be the effect or the level left
Homo sapiens = organism: Homo sapiens; assay: Selectivity ratio of Ki(app) for human low affinity Dopamine D2S receptor to Ki(app) for human high affinity Dopamine D2S receptor
[7] = molecular target: Sodium-dependent serotonin transporter (Homo sapiens, UniProt P31645); assay: Displacement of [3H]imipramine from human SERT expressed in CHO cells by competition binding assay; format: cell-based; conditions: read-out: Ki(app)
Sequence of Sodium-dependent serotonin transporter (P31645 whole entry): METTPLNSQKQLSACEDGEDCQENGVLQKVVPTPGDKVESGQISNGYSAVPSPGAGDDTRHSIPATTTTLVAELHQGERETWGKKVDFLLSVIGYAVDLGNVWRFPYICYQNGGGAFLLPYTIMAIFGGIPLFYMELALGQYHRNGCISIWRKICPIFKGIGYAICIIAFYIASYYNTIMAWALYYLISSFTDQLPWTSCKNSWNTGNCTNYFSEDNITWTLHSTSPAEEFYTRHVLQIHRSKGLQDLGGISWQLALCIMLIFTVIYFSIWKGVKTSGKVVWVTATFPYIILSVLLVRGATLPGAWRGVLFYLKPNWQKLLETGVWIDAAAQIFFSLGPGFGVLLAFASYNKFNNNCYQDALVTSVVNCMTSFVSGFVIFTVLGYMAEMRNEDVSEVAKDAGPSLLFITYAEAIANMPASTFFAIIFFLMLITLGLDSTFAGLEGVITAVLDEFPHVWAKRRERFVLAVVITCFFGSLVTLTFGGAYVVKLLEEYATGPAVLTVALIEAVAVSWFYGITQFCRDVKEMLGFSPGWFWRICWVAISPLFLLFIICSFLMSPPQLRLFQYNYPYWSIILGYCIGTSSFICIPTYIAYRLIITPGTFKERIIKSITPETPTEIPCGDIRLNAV

D(2) dopamine receptor [8] = molecular target: T1, D(2) dopamine receptor (Homo sapiens, UniProt P14416); assay: Displacement of [3H]methylspiperone from human low affinity Dopamine D2S receptor by competition binding assay
T1 sequence (P14416 whole entry): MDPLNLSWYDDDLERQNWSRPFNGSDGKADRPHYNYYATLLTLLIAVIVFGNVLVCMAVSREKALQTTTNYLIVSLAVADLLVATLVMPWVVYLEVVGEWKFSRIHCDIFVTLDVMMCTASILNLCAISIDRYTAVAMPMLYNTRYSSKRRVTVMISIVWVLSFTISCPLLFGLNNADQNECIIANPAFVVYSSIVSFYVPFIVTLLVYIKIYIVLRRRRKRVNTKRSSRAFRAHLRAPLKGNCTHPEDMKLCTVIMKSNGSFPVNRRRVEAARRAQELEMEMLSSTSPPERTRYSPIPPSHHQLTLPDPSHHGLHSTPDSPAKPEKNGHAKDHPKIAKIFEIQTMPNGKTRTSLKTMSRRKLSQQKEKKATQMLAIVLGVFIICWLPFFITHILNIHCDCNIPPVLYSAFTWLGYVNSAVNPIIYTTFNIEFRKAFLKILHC

D(2) dopamine receptor [9] = molecular target: T1, D(2) dopamine receptor; assay: Displacement of [3H]7-OH-DPAT from human high affinity Dopamine D2S receptor by competition binding assay
Rattus norvegicus [10] = assay: Decrease in 5-HIAA level in Sprague-Dawley rat striatum at 33 umol/kg, sc by HPLC analysis relative to saline-treated control; format: functional; set-up: scale not given: the % may be the effect or the level left
[11] = molecular target: T2, Amine oxidase [flavin-containing] A (Rattus norvegicus, UniProt P21396); assay: Displacement of [3H]Ro 41-1049 from MAO-A in rat cerebral cortex by competition binding assay; format: tissue-based; conditions: for Ki: read-out: Ki(app)
T2 sequence (P21396 whole entry): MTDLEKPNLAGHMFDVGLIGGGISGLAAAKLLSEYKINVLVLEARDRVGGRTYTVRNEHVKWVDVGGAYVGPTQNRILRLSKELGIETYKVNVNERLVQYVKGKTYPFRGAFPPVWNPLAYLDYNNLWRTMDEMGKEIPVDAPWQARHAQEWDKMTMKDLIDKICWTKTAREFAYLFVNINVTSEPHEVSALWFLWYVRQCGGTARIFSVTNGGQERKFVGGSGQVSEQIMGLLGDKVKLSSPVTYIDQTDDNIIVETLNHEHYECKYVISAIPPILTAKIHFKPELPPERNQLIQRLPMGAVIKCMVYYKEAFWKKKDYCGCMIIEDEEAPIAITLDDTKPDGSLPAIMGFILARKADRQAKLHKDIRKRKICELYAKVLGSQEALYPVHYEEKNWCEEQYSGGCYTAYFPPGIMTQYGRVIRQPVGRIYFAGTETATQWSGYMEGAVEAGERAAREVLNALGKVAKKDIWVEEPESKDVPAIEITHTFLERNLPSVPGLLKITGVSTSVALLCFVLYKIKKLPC

[12] = molecular target: 5-hydroxytryptamine receptor 2A (Homo sapiens, UniProt P28223); assay: Displacement of [3H]ketanserin from human 5-HT2A at 1 uM by CEREP assay
Sequence of 5-hydroxytryptamine receptor 2A (P28223 whole entry): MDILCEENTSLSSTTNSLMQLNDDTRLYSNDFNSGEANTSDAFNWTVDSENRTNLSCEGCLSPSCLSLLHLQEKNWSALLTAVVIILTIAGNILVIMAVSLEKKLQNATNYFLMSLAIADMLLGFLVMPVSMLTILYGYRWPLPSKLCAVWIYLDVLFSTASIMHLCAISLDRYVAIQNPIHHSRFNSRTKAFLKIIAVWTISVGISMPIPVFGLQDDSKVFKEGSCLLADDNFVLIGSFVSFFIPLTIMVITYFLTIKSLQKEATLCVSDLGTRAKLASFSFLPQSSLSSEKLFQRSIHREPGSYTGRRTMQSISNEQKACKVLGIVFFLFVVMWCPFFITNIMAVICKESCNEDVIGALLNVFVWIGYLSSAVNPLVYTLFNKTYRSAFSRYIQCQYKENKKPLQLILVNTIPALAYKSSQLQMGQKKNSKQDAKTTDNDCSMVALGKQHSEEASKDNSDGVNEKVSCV

[13] = molecular target: T3, 5-hydroxytryptamine receptor 1A (Homo sapiens) (UniProt P08908); assay: Displacement of [3H]8- OH-DPAT from human 5-HT1A at 1 uM by CEREP assay
T3 sequence (whole entry): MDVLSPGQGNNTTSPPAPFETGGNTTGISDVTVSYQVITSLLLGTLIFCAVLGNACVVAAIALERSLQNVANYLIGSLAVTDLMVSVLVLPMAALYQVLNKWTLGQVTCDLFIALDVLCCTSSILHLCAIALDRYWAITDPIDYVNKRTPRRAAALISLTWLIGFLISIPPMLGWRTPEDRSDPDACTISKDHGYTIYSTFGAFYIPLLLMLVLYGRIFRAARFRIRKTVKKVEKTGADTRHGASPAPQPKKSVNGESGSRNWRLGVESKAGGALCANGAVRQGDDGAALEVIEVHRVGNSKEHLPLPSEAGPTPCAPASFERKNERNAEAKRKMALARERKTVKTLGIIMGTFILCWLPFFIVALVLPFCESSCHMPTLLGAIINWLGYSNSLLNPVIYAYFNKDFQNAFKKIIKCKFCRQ

[14] = molecular target: Sodium-dependent dopamine transporter (Homo sapiens) (UniProt Q01959); assay: Displacement of [3H]BTCP from human DAT at 1 uM by CEREP assay
Sequence of Sodium-dependent dopamine transporter (Homo sapiens) (Q01959 whole entry): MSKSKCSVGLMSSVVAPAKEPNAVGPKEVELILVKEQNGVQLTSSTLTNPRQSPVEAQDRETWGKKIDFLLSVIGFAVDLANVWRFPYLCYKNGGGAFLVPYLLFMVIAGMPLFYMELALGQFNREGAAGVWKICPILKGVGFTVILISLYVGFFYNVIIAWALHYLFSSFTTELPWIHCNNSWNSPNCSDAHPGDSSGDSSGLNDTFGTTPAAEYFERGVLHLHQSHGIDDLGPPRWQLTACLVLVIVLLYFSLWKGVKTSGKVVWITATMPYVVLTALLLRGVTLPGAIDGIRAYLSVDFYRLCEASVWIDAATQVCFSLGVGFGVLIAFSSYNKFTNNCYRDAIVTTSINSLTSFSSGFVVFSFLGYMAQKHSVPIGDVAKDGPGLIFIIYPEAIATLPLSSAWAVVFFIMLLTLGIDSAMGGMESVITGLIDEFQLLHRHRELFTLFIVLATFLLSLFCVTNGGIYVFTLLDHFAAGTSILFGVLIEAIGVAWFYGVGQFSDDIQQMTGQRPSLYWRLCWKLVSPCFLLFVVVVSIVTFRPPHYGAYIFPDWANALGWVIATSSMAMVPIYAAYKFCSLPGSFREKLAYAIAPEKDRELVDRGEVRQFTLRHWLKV

[15] = molecular target: T4, Alpha-2A adrenergic receptor (Homo sapiens) (UniProt P08913); assay: Displacement of [3H]UK 14.304 from human adrenergic alpha2A receptor at 1 uM
T4 sequence (whole entry): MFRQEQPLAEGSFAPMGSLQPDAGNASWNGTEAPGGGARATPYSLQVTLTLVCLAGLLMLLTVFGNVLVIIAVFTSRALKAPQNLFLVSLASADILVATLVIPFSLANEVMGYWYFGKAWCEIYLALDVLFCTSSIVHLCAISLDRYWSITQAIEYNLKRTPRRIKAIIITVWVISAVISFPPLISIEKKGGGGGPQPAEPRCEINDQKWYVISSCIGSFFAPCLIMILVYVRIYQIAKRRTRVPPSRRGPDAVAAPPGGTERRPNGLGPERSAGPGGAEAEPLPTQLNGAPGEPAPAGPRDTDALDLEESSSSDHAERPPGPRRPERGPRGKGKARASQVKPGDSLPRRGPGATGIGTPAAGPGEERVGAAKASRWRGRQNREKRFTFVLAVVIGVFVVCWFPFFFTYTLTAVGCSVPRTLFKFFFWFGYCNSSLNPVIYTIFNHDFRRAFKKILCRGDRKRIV

Compound | Activity (Rattus norvegicus [1]) | ED50 (Rattus norvegicus [2]) | Activity (Rattus norvegicus [3]) | Activity (Rattus norvegicus [4]) | Activity (Rattus norvegicus [5]) | Activity (Rattus norvegicus [6]) | Ratio Ki(app) (Homo sapiens) | Ki [7] | Ki (D(2) dopamine receptor [8]) | Ki (D(2) dopamine receptor [9]) | Activity (Rattus norvegicus [10]) | Ki [11] | inhibition [12] | inhibition [13] | inhibition [14] | inhibition [15] | IC50 [11] | IC50 (D(2) dopamine receptor [8])
CCCN1CCC[C@@H](c2cccc(S(C)(=O)=O)c2)C1 | 100% | 63 µmol/kg | 215% | 260% | – | – | – | – | – | – | – | – | – | – | – | – | – | –
CCCN1CCC(c2cn(C)c3ccc(F)cc23)CC1 | – | 3 µmol/kg | – | – | 275% | 9% | 1.7 | 58 nM | 32 nM | 19 nM | 87% | 6860 nM | – | – | – | – | – | –
CCCN1CCC(c2cn(C)c3cc(F)ccc23)CC1 | 95% | 33 µmol/kg | 27% | 264% | – | – | 1.7 | 45 nM | 275 nM | 157 nM | – | 4050 nM | – | – | – | – | – | –
CCCN1CCC(c2csc3ccccc23)CC1 | 79% | 54 µmol/kg | 48% | 290% | – | – | 4.6 | 6.5 nM | 121 nM | 26 nM | – | 14000 nM | – | – | – | – | – | –
CCCN1CCC(c2ccc3ccccc3c2)CC1 | 70% | – | 22% | 32% | – | – | 1.9 | 127 nM | 2870 nM | 1540 nM | – | 63 nM | 91% | 41% | 47% | 20% | – | –
CCCN1CCC(c2cc3ccccc3s2)CC1 | 76% | – | 37% | 28% | – | – | 4 | 130 nM | 2320 nM | 574 nM | – | 18 nM | 95% | 23% | 67% | 21% | – | –
CCCN1CCC(c2cccc(S(C)(=O)=O)c2)CC1 [PRIDOPIDINE] | – | 81 µmol/kg | – | – | – | – | – | – | – | – | – | – | – | – | – | – | – | –
CCCN1CCC(c2n[nH]c3ccccc23)CC1 | – | 55 µmol/kg | – | – | 227% | 7% | 5.7 | 5640 nM | 1070 nM | 187 nM | 105% | 7440 nM | – | – | – | – | – | –
CCCN1CCC(N2C(=O)C(=O)c3ccccc32)CC1 | 95% | inactive | 118% | 101% | – | – | 0.9 | 23800 nM | 12200 nM | 12800 nM | – | – | – | – | – | – | > 580000 nM | –
CCCN1CCC(c2c[nH]c3cc(F)ccc23)CC1 | – | 4.1 µmol/kg | – | – | 299% | 2.8% | 0.6 | 45 nM | 27 nM | 43 nM | 93% | 15800 nM | 100% | 14% | 1% | 91% | – | –
CCCN1CCC(c2cccc3ccccc23)CC1 | 76% | 103 µmol/kg | 62% | 218% | – | – | 2.7 | 52 nM | 112 nM | 41 nM | – | 5420 nM | – | – | – | – | – | –
CCCN1CCC(n2ccc3ccccc32)CC1 | 87% | 126 µmol/kg | 92% | 227% | – | – | 10 | 54 nM | 1140 nM | 109 nM | – | 74900 nM | – | – | – | – | – | –
CCCN1CCC(n2cnc3ccccc32)CC1 | 98% | inactive | 20% | 111% | – | – | – | 122 nM | – | 10800 nM | – | – | – | – | – | – | > 580000 nM | > 580000 nM
CCCN1CCC(n2c(=O)n(C)c3cc(Cl)ccc32)CC1 | 113% | 47 µmol/kg | 27% | 253% | – | – | 0.4 | 2240 nM | 2000 nM | 5180 nM | – | – | – | – | – | – | > 580000 nM | –
